Source: patent US10626115B2, “Fused pyrimidinone and triazinone derivatives containing bridged nitrogen, their process of preparation and their therapeutic uses as antifungal and/or antiparasitic agents” (UNIVERSITE DE NANTES, priority 2015, dated 2020)
≈ marks a conversion by molar mass, not a printed value. Like-named read-outs stand apart in the source and are kept apart here.

Tests used:
[1] = system: fluconazole-resistant C. glabrata (CAGL2); assay: microbe, parasite or virus in culture; type: cell-based; settings: Nakaseomyces glabratus, read-out: MIC values CAGL2
Protocol: (§1) Eight strains of Candida spp. with various azoles-susceptibilities were used: • One fluconazole-susceptible C. albicans strain: CAAL93 • Two fluconazole-resistant C. albicans strains: CAAL111 (efflux pump) and CAAL117 (erg11 mutations+voriconazole-resistant) • five fluconazole-resistant Candida non albicans strains: C. krusei (CAKR7, CAKR8), C. glabrata (CAGL2), C. parapsilosis s.l. (CAPA1, CAPA2).
(§2) Antifungal susceptibility was evaluated with a spectrofluorimetric microdilution method.

[2] = system: fluconazole-resistant C. krusei (CAKR8); assay: microbe, parasite or virus in culture; type: cell-based; settings: Pichia kudriavzevii, read-out: MIC values CAKR8
Protocol: as §1, §2

[3] = system: fluconazole-resistant C. albicans strain CAAL117 (erg11 mutations+voriconazole-resistant); assay: microbe, parasite or virus in culture; type: cell-based; settings: for MIC: Candida albicans, read-out: MIC values CAAL117
Protocol: as §1, §2

[4] = system: fluconazole-resistant C. krusei (CAKR7); assay: microbe, parasite or virus in culture; type: cell-based; settings: Pichia kudriavzevii, read-out: MIC values CAKR7
Protocol: as §1, §2

[5] = system: fluconazole-resistant C. albicans strain CAAL111 (efflux pump); assay: microbe, parasite or virus in culture; type: cell-based; settings: Candida albicans, read-out: MIC values CAAL111
Protocol: as §1, §2

[6] = system: fluconazole-resistant C. parapsilosis s.l. (CAPA1); assay: microbe, parasite or virus in culture; type: cell-based; settings: Lodderomyces parapsilosis, read-out: MIC values CAPA1
Protocol: as §1, §2

[7] = system: fluconazole-resistant C. parapsilosis s.l. (CAPA2); assay: microbe, parasite or virus in culture; type: cell-based; settings: Lodderomyces parapsilosis, read-out: MIC values CAPA2
Protocol: as §1, §2

[8] = system: A. fumigatus itraconazole-resistant strain ASFU20; assay: Antifungal susceptibility, spectrofluorimetric microdilution, ASFU20; type: cell-based, Aspergillus fumigatus; settings: Aspergillus fumigatus, read-out: MIC values ASFU20
Protocol: (§3) Eleven strains of A. fumigatus with various itraconazole susceptibility were used: • Five susceptible strains: ASFU7, ASFU35A, ASFU38A, ASFU76 and ASFU78. • Six itraconazole-resistant strains: ASFU77 (erg11 mutation), ASFU13, ASFU17, ASFU19, ASFU20, ASFU23.
(§4) Antifungal susceptibility was evaluated with a spectrofluorimetric microdilution method. MIC was the concentration that was able to inhibit 80% of fluorescence measured in the control wells.

[9] = system: A. fumigatus susceptible strain ASFU76; assay: Antifungal susceptibility, spectrofluorimetric microdilution, ASFU76; type: cell-based, Aspergillus fumigatus; settings: Aspergillus fumigatus, read-out: MIC values ASFU76
Protocol: as §3, §4

[10] = system: A. fumigatus itraconazole-resistant strain ASFU13; assay: Antifungal susceptibility, spectrofluorimetric microdilution, ASFU13; type: cell-based, Aspergillus fumigatus; settings: Aspergillus fumigatus, read-out: MIC values ASFU13
Protocol: as §3, §4

[11] = system: fluconazole-susceptible C. albicans strain: CAAL93; assay: Antifungal susceptibility, spectrofluorimetric microdilution, CAAL93; type: cell-based; settings: Candida albicans, read-out: MIC values CAAL93
Protocol: as §1, §2

[12] = system: A. fumigatus itraconazole-resistant strain ASFU19; assay: Antifungal susceptibility, spectrofluorimetric microdilution, ASFU19; type: cell-based, Aspergillus fumigatus; settings: Aspergillus fumigatus, read-out: MIC values ASFU19
Protocol: as §3, §4

[13] = system: A. fumigatus susceptible strain ASFU78; assay: Antifungal susceptibility, spectrofluorimetric microdilution, ASFU78; type: cell-based, Aspergillus fumigatus; settings: Aspergillus fumigatus, read-out: MIC values ASFU78
Protocol: as §3, §4

[14] = system: A. fumigatus susceptible strain ASFU7; assay: Antifungal susceptibility, spectrofluorimetric microdilution, ASFU7; type: cell-based, Aspergillus fumigatus; settings: Aspergillus fumigatus, read-out: MIC values ASFU7
Protocol: as §3, §4

[15] = system: A. fumigatus itraconazole-resistant strain ASFU23; assay: Antifungal susceptibility, spectrofluorimetric microdilution, ASFU23; type: cell-based, Aspergillus fumigatus; settings: Aspergillus fumigatus, read-out: MIC values ASFU23
Protocol: as §3, §4

[16] = system: A. fumigatus itraconazole-resistant strain ASFU77 (erg11 mutation); assay: Antifungal susceptibility, spectrofluorimetric microdilution, ASFU77; type: cell-based, Aspergillus fumigatus; settings: Aspergillus fumigatus, read-out: MIC values ASFU77
Protocol: as §3, §4

[17] = system: A. fumigatus susceptible strain ASFU38A; assay: Antifungal susceptibility, spectrofluorimetric microdilution, ASFU38A; type: cell-based, Aspergillus fumigatus; settings: Aspergillus fumigatus, read-out: MIC values ASFU38A
Protocol: as §3, §4

[18] = system: A. fumigatus susceptible strain ASFU35A; assay: Antifungal susceptibility, spectrofluorimetric microdilution, ASFU35A; type: cell-based, Aspergillus fumigatus; settings: Aspergillus fumigatus, read-out: MIC values ASFU35A
Protocol: as §3, §4

[19] = system: A. fumigatus itraconazole-resistant strain ASFU17; assay: Antifungal susceptibility, spectrofluorimetric microdilution, ASFU17; type: cell-based, Aspergillus fumigatus; settings: Aspergillus fumigatus, read-out: MIC values ASFU17
Protocol: as §3, §4

[20] = concentration inhibiting 80% of control fluorescence

| Structure (SMILES) | MIC [1] [µg/mL] | MIC [2] [µg/mL] | MIC [3] [µg/mL] | MIC [4] [µg/mL] | MIC [5] [µg/mL] | MIC [8] [µg/mL] | MIC [10] [µg/mL] | MIC [12] [µg/mL] | MIC [15] [µg/mL] | MIC [16] [µg/mL] | MIC [19] [µg/mL] | melting point [°C] | MIC [9] [µg/mL] | MIC [11] [µg/mL] | MIC [13] [µg/mL] | MIC [14] [µg/mL] | MIC [17] [µg/mL] | MIC [18] [µg/mL] | also measured |
| --- | --- | --- | --- | --- | --- | --- | --- | --- | --- | --- | --- | --- | --- | --- | --- | --- | --- | --- | --- |
| C[C@@H](c1ncncc1F)[C@](O)(Cn1cncn1)c1ccc(F)cc1F [VOR, voriconazole, reference compound] | 0.126 ± 0.003 (≈ 0.361 µM) | 0.24 ± 0.07 (≈ 0.687 µM) | 1.1 ± 0.1 (≈ 3.15 µM) | 0.817 ± 0.007 (≈ 2.34 µM) | 0.458 ± 0.196 (≈ 1.31 µM) | 0.178 (≈ 0.51 µM) | 0.136 (≈ 0.389 µM) | 1.86 (≈ 5.33 µM) | 0.097 (≈ 0.278 µM) | 0.61 ± 0.04 (≈ 1.75 µM) | 1.19 (≈ 3.39 µM) |  |  |  |  |  |  |  | MIC [6]: 0.95 ± 0.13 µg/mL (≈ 2.72 µM); MIC [7]: 0.36 ± 0.001 µg/mL (≈ 1.03 µM); MIC [9, 20]: 0.64 ± 0.01 µg/mL (≈ 1.83 µM); MIC ([11]; concentration inhibiting 50% of control fluorescence): 0.005 ± 0.001 µg/mL (≈ 0.0143 µM); MIC [13, 20]: 0.59 ± 0.01 µg/mL (≈ 1.69 µM); MIC [14, 20]: 0.15 ± 0.001 µg/mL (≈ 0.429 µM); MIC [17, 20]: 0.75 ± 0.2 µg/mL (≈ 2.15 µM); MIC [18, 20]: 0.6 ± 0.08 µg/mL (≈ 1.72 µM) |
| C[C@@H](n1ncc2cccn2c1=O)[C@](O)(Cn1cncn1)c1ccc(F)cc1F [Compound 44, 3-[(1R,2R)-2-(2,4-Difluorophenyl)-2-hydroxy-1-methyl-3-(1,2,4-triazol-1-yl)propyl]-3H-pyrrolo[1,2-d][1,2,4]triazin-4-one] | 0.099 ± 0.004 (≈ 0.256 µM) | 1.15 (≈ 2.98 µM) | 0.79 ± 0.092 (≈ 2.04 µM) | 0.625 ± 0.057 (≈ 1.62 µM) | 0.48 ± 0.199 (≈ 1.24 µM) | 8.04 (≈ 20.8 µM) | 4.06 (≈ 10.5 µM) | > 38 | 9.54 (≈ 24.7 µM) | 52.8 ± 4.54 (≈ 137 µM) | > 38 | 131 to 132 | 18.1 ± 10.1 (≈ 46.9 µM) | < 0.001 | 19.7 ± 12.9 (≈ 51 µM) | 24.3 ± 9.57 (≈ 62.9 µM) | 55.1 ± 9.96 (≈ 143 µM) | 21.4 ± 10.1 (≈ 55.3 µM) |  |
| C[C@@H](n1ncc2cc(-c3ccc([N+](=O)[O-])cc3)cn2c1=O)[C@](O)(Cn1cncn1)c1ccc(F)cc1F [Compound 50, 3-[(1R,2R)-2-(2,4-Difluorophenyl)-2-hydroxy-1-methyl-3-(1,2,4-triazol-1-yl)propyl]-7-(4-nitrophenyl)-3H-pyrrolo[1,2-d][1,2,4]triazin-4-one] | 0.074 ± 0.038 (≈ 0.146 µM) | 0.039 ± 0.027 (≈ 0.0769 µM) | 0.018 ± 0.001 (≈ 0.0355 µM) | 0.066 ± 0.009 (≈ 0.13 µM) | 0.017 ± 0.007 (≈ 0.0335 µM) | 21.3 (≈ 42 µM) | 3.08 (≈ 6.07 µM) | > 50 | 43 (≈ 84.7 µM) | > 100 | > 50 | 130 to 131 | 8.23 ± 2.23 (≈ 16.2 µM) | < 0.001 | 6.4 ± 1.07 (≈ 12.6 µM) | 8.31 ± 0.52 (≈ 16.4 µM) | 8.86 (≈ 17.5 µM) | 6.59 ± 0.04 (≈ 13 µM) | fold more active than voriconazole against CAAL117 ([3]; compared with voriconazole): 100 fold |
